According to patent publication US9315475B2 (MERCK SHARP & DOHME CORP., priority 2011, dated 2016):

Tests used:
HIV-1 (H9IIIB strain) = test: Antiviral acute infection assay in cell culture (Spread); type: cell-based; conditions: Human immunodeficiency virus 1, T-lymphoid, HIV-1 H9IIIB infection of MT-4 human T-lymphoid cells in 10% FBS; mean of at least two independent experiments
Text: Antiviral Assays in Cell Culture (“Spread”)
Acute Infection Assay (“Spread”) data were generated using HIV-1 (H9IIIB strain) infection of MT-4 human T-lymphoid cells in 10% FBS, and according to the methods disclosed by J. P. Vacca et al, “L-735,524: An orally bioavailable human immunodeficiency virus type 1 protease inhibitor,” Proc. Natl. Acad. Sci. USA, Vol. 91, pp. 4096-4100 (April 1994).

wildtype HIV-1 protease = target: T1, wildtype HIV-1 protease (Human immunodeficiency virus type 1 group M subtype B, UniProt P04585); test: Assay for inhibition of microbial expressed HIV protease (Pepcleav); type: biochemical; conditions: wild type HIV-1 protease expressed in E. coli, peptide substrate, pH 5.5; mean of at least two independent experiments; read-out: Pepcleav
T1 construct: the wildtype HIV-1 protease (which was expressed in Escherichia coli); made in house; host or cells: Escherichia coli
How it was run: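 Cleavage of 400 μM peptide substrate Val-Ser-Gln-Asn-(βnaphthyl)Ala-Pro-Ile-Val by 20 pM wild-type enzyme (E. coli-expressed) ran 1 h at 30 °C after 30 min inhibitor preincubation, pH 5.5 acetate buffer. Inhibition derived from product peak area by C18 LC with multiple-reaction-monitoring MS after formic acid quench.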

Row | SMILES | EC50 (HIV-1 (H9IIIB strain)) | IC50 (wildtype HIV-1 protease)
1 | COC(=O)N[C@H](C(=O)Nc1cncc(F)c1CC[C@@H]1CN[C@H](COC(=O)NCC(F)(F)F)CO1)[C@H](c1ccc(F)cc1)c1ccc(Br)cc1 [Example 298, (βR)-β-(4-bromophenyl)-4-fluoro-N-(5-fluoro-4-{2-[(2R,5S)-5-({[(2,2,2-trifluoroethyl)carbamoyl]oxy}methyl)morpholin-2-yl]ethyl}pyridin-3-yl)-Nα-(methoxycarbonyl)-L-phenylalaninamide] | 14 nM | 0.3 nM
2 | O=C(C[C@@H](c1ccc(F)cc1)C1CCCCC1)Nc1cncc(F)c1CC[C@@H]1CN[C@H](COC(=O)NCC(F)(F)F)CO1 [Example 148, {(3S,6R)-6-[2-(3-{[(3R)-3-cyclohexyl-3-(4-fluorophenyl)propanoyl]amino}-5-fluoropyridin-4-yl)ethyl]morpholin-3-yl}methyl (2,2,2-trifluoroethyl)carbamate] | 150 nM | 22 nM
3 | N[C@H](C(=O)Nc1cc(F)cc(F)c1CC[C@@H]1CN[C@H](COC(=O)NCC(F)(F)F)CO1)C(c1ccc(F)cc1)c1ccc(F)cc1 [Example 247, N-(3,5-difluoro-2-{2-[(2R,5S)-5-({[(2,2,2-trifluoroethyl)carbamoyl]oxy}methyl)morpholin-2-yl]ethyl}phenyl)-4-fluoro-β-(4-fluorophenyl)-L-phenylalaninamide] | 260 nM | 12 nM
4 | N[C@H](C(=O)Nc1cccc(F)c1CC[C@@H]1CN[C@H](COC(=O)NCC(F)(F)F)CO1)[C@H](c1ccccc1)c1ccc2ccccc2c1 [Example 241, (βR)-N-(3-fluoro-2-{2-[(2R,5S)-5-({[(2,2,2-trifluoroethyl)carbamoyl]oxy}methyl)morpholin-2-yl]ethyl}phenyl)-β-naphthalen-2-yl-L-phenylalaninamide] | 360 nM | 32 nM
5 | CCC[C@H](c1ccccc1)[C@H](NC(=O)OC)C(=O)Nc1cccc(F)c1CC[C@@H]1CN[C@H](COC(=O)NCC(F)(F)F)CO1 [Example 293, (βR)-N-(3-fluoro-2-{2-[(2R,5S)-5-({[(2,2,2-trifluoroethyl)carbamoyl]oxy}methyl)morpholin-2-yl]ethyl}phenyl)-Nα-(methoxycarbonyl)-β-propyl-L-phenylalaninamide] | 80 nM | 100 nM
6 | N[C@H](C(=O)Nc1cccc(F)c1CC[C@@H]1CN[C@H](COC(=O)NCC(F)(F)F)CO1)[C@@H](c1ccc(F)cc1)c1cccc(OC(F)(F)F)c1 [Example 263, (βS)-4-fluoro-N-(3-fluoro-2-{2-[(2R,5S)-5-({[(2,2,2-trifluoroethyl)carbamoyl]oxy}methyl)morpholin-2-yl]ethyl}phenyl)-β-[3-(trifluoromethoxy)phenyl]-L-phenylalaninamide] | 48 nM | 3.7 nM
7 | N[C@H](C(=O)Nc1cccc(F)c1CC[C@@H]1CN[C@H](COC(=O)NCc2cccnc2)CO1)C(c1ccc(F)cc1)c1ccc(F)cc1 [Example 201, 4-fluoro-β-(4-fluorophenyl)-N-(3-fluoro-2-{2-[(2R,5S)-5-({[(pyridin-3-ylmethyl)carbamoyl]oxy}methyl)morpholin-2-yl]ethyl}phenyl)-L-phenylalaninamide] | 80 nM | 28 nM
8 | COC(=O)N[C@H](C(=O)Nc1cccc(F)c1CC[C@@H]1CN[C@H](COC(=O)NCC(F)(F)F)CO1)[C@H](c1ccc(F)cc1)c1ccc(F)c(F)c1 [Example 295, (βR)-β-(3,4-difluorophenyl)-4-fluoro-N-(3-fluoro-2-{2-[(2R,5S)-5-({[(2,2,2-trifluoroethyl)carbamoyl]oxy}methyl)morpholin-2-yl]ethyl}phenyl)-Nα-(methoxy-carbonyl)-L-phenylalaninamide] | 13 nM | 2.5 nM
9 | N[C@H](C(=O)Nc1cncc(F)c1CC[C@@H]1CN[C@H](COC(=O)NC[C@H]2CCCO2)CO1)C(c1ccc(F)cc1)c1ccc(F)cc1 [Example 215, 4-fluoro-β-(4-fluorophenyl)-N-[5-fluoro-4-(2-{(2R,5S)-5-[({[(2R)-tetrahydrofuran-2-ylmethyl]carbamoyl}oxy)methyl]morpholin-2-yl}ethyl)pyridin-3-yl]-L-phenylalaninamide] | 25 nM | 3.5 nM
10 | N[C@H](C(=O)Nc1cncc(F)c1CC[C@@H]1CN[C@H](COC(=O)NC2CCCOC2)CO1)C(c1ccc(F)cc1)c1ccc(F)cc1 (stereo partly drawn) [Example 253, 4-fluoro-β-(4-fluorophenyl)-N-(5-fluoro-4-{2-[(2R,5S)-5-{[(tetrahydro-2H-pyran-3-ylcarbamoyl)oxy]methyl}morpholin-2-yl]ethyl}pyridin-3-yl)-L-phenylalaninamide] | 24 nM | 7.7 nM
11 | N[C@H](C(=O)Nc1cncc(F)c1CC[C@@H]1CN[C@H](COC(=O)NCC(F)(F)F)CO1)[C@H](c1ccc(F)cc1)c1cccc(Cl)c1 [Example 266, (βR)-3-chloro-β-(4-fluorophenyl)-N-(5-fluoro-4-{2-[(2R,5S)-5-({[(2,2,2-trifluoroethyl)carbamoyl]oxy}methyl)morpholin-2-yl]ethyl}pyridin-3-yl)-L-phenylalaninamide] | 50 nM | 3.1 nM
12 | N[C@H](C(=O)Nc1cncc(F)c1CC[C@@H]1CN[C@H](COC(=O)NCC(F)(F)F)CO1)[C@@H](c1ccc(F)cc1)c1cc(F)ccc1F [Example 268, (βS)-2,5-difluoro-β-(4-fluorophenyl)-N-(5-fluoro-4-{2-[(2R,5S)-5-({[(2,2,2-trifluoroethyl)carbamoyl]oxy}methyl)morpholin-2-yl]ethyl}pyridin-3-yl)-L-phenylalaninamide] | 44 nM | 2.8 nM
13 | COC(=O)N[C@H](C(=O)Nc1cccc(F)c1CC[C@@H]1CN[C@H](COC(=O)NCC(F)(F)F)CO1)[C@@H](c1ccc(F)cc1)C1CCOCC1 [Example 130, (βR)-4-Fluoro-N-(3-fluoro-2-{2-[(2R,5S)-5-({[(2,2,2-trifluoroethyl)carbamoyl]oxy}methyl)morpholin-2-yl]ethyl}phenyl)-Nα-(methoxycarbonyl)-β-(tetrahydro-2H-pyran-4-yl)-L-phenylalaninamide] | 26 nM | 68 nM
14 | N[C@H](C(=O)Nc1cncc(F)c1CC[C@@H]1CN[C@H](COC(=O)NCC(F)(F)F)CO1)[C@H](c1ccc(F)cc1)c1ccc2ccccc2c1 [Example 96, (βR)-4-Fluoro-N-(5-fluoro-4-{2-[(2R,5S)-5-({[(2,2,2-trifluoroethyl)carbamoyl]oxy}methyl)morpholin-2-yl]ethyl}pyridin-3-yl)-β-naphthalen-2-yl-L-phenylalaninamide] | 73 nM | 9.9 nM
15 | COC(=O)N[C@H](C(=O)Nc1cccc(F)c1CC[C@@H]1CN[C@H](COC(=O)NCC(F)(F)F)CO1)[C@@H](c1ccc(F)cc1)c1cc(F)cc(F)c1 [Example 292, (βS)-3,5-difluoro-β-(4-fluorophenyl)-N-(3-fluoro-2-{2-[(2R,5S)-5-({[(2,2,2-trifluoroethyl)carbamoyl]oxy}methyl)morpholin-2-yl]ethyl}phenyl)-Nα-(methoxy-carbonyl)-L-phenylalaninamide] | 16 nM | 3.6 nM
16 | NC(=O)OC[C@@H]1CO[C@H](COc2c(F)cc(F)cc2NC(=O)[C@@H](N)C(c2ccc(F)cc2)c2ccc(F)cc2)CN1 [Example 258, N-[2-({(2S,5S)-5-[(carbamoyloxy)methyl]morpholin-2-yl}methoxy)-3,5-difluorophenyl]-4-fluoro-β-(4-fluorophenyl)-L-phenylalaninamide] | 260 nM | 5 nM
17 | NC(=O)OC[C@@H]1CO[C@H](CCc2c(F)cccc2NC(=O)[C@@H](N)C(c2ccc(F)cc2)c2ccc(F)cc2)CN1 [Example 116, N-[2-(2-{(2R,5S)-5-[(Carbamoyloxy)methyl]morpholin-2-yl}ethyl)-3-fluorophenyl]-4-fluoro-β-(4-fluorophenyl)-L-phenylalaninamide] | 47 nM | 17 nM
18 | N[C@H](C(=O)Nc1cncc(F)c1CC[C@@H]1CN[C@H](COC(=O)NCc2nc3ccncc3[nH]2)CO1)C(c1ccc(F)cc1)c1ccc(F)cc1 [Example 242, 4-fluoro-N-(5-fluoro-4-{2-[(2R,5S)-5-({[(3H-imidazo[4,5-c]pyridin-2-ylmethyl)carbamoyl]oxy}methyl)morpholin-2-yl]ethyl}pyridin-3-yl)-β-(4-fluorophenyl)-L-phenylalaninamide] | 600 nM | 25 nM
19 | N[C@H](C(=O)Nc1cccc(F)c1CC[C@@H]1CN[C@H](COC(=O)NCC(F)(F)F)CO1)[C@H](c1ccccc1)c1ccc(F)c(F)c1 [Example 269, (βR)-β-(3,4-difluorophenyl)-N-(3-fluoro-2-{2-[(2R,5S)-5-({[(2,2,2-trifluoroethyl)carbamoyl]oxy}methyl)morpholin-2-yl]ethyl}phenyl)-L-phenylalaninamide] | 25 nM | 2.7 nM
20 | COC(=O)N[C@H](C(=O)Nc1cccc(F)c1CC[C@@H]1CN[C@H](COC(=O)NCC(F)(F)F)CO1)C(c1cccc(F)c1)c1cccc(F)c1 [Example 307, 3-fluoro-β-(3-fluorophenyl)-N-(3-fluoro-2-{2-[(2R,5S)-5-({[(2,2,2-trifluoroethyl)carbamoyl]oxy}methyl)morpholin-2-yl]ethyl}phenyl)-Nα-(methoxy-carbonyl)-L-phenylalaninamide] | 14 nM | 3 nM
